Here are results for one substance from patent publication US9095565B2, “Methods for treating blood disorders” (Phoenicia Biosciences, Inc., priority 2006, dated 2015).

The test system of one assay is Erythroid colonies. Kind of assay: Experiment 6: erythroid colony growth from sickle cell patients receiving hydroxyurea. The assay is classed as cell-based, human. The procedure: Erythroid colonies from the peripheral blood of 4 patients with sickle cell disease who were receiving treatment with Hydroxyurea (HU), a chemotherapeutic agent which suppresses marrow growth and reduces red blood cell production, were cultured alone or with added test compounds M, P, 2-methyl-1-benzofuran-4-carboxylic acid, V, W, Y (racemic mixture) or AI. L-arginine was added as a neutral control, and had no effect on numbers of erythroid colonies.
2-methyl-1-benzofuran-4-carboxylic acid and compound V require additional samples for statistical evaluation, but had positive effects in 3/3 different patients' cultures. These findings indicate that the test compounds stimulate erythroid cell production particularly in conditions of anemia and bone marrow suppression.

The subject of assay [1] is erythroid (red blood cell) colonies. Nature of the assay: Experiment 5: growth of erythroid colonies from cord blood with standard growth factors (EPO and Il-3). The format is cell-based, human. The protocol: In an additional study, comparative growth of erythroid (red blood cell) colonies cultured from cord blood samples was evaluated with the addition of growth factors alone or with the addition of test compounds.
Control and test cultures were established from the same samples with the same growth factors (EPO and II-3) with addition of test compounds. The compounds tested were M, P, R, T, W, Y, Z, AI, F and 3-(5-chlorothien-3-yl)acrylic acid. Two compounds previously shown as positive proliferative agents were included for comparison.

In a further assay the test system is γ-globin. The settings on record: cited from earlier work.

Take arginine butyrate: in the assay with Erythroid colonies, the “effect on numbers of erythroid colonies compared to control” value is on record as “decreased numbers of erythroid colonies”. Moreover, the “% Change from Control (erythroid colony growth)” value in the assay on Erythroid colonies (micromolar: L-arginine 150, AB 100, PA 100, M 1, P 100, 2-methyl-1-benzofuran-4-carboxylic acid 10, V 10, W 40, Y racemic mix 50, Al 30, Hydroxyurea 20) is −29%. Further, in the assay with Erythroid colonies (patients' cultures, same concentrations as % Change), the “Number with effects/No effect” value is 5/6. The “erythroid colony numbers” value in assay [1] is “reduced colony numbers”. Besides, the “levels required in vitro” value in the assay with γ-globin was 100 µM.
